Data taken from patent US9663551B2, “Solanidine-derived compounds” (priority 2013, dated 2017).
Several values for one entry are separate records, joined by “and”; a condition that tells them apart may be missing. Equal values may be shown once.

Assays:
Assay type in all cases: in vivo
[1] = system: Macrosiphum euphorbiae reproduction; test: Effects on reproduction (daily fecundity per aphid)
Method: (§1) For the tests on Macrosiphum euphorbiae adults, neonates (50 per experiment) resulting from synchronization are raised in petri dishes on leaves of Desiree variety potato plants for 10 days. Once the adult stage is reached, they are placed in PVC cages containing artificial medium alone (control experiment) or artificial medium supplemented with 0.002, 0.02 or 0.2 mM active compound.
(§2) The individuals were monitored every two days over a period of 16 days. With each recording, the artificial medium is changed. Each cage houses five aphids.
(§3) The statistical analyses were performed using the Statistica 10 software (StatSoft®). To compare aphid survival in comparison with the control, Pearson's X^2 test (α<0.05) was applied. To compare the compounds in terms of concentration and nature, Fisher's least significant difference (LSD) test was applied (α<0.05). Daily fecundity was also studied using Fisher's LSD test (α<0.05).
Data regarding the number of larvae resulting from parthenogenesis can be used to calculate daily fecundity per aphid. The results are presented in FIG. 3, wherein the number 10 represents the control, the reference numbers 12, 14 and 16 represent the results of compound 100 at the concentrations of 0.002, 0.02 and 0.2 mM, respectively, the reference numbers 18, 20 and 22 represent the results of compound 101 at the concentrations of 0.002, 0.02 and 0.2 mM, respectively, the reference numbers 24, 26, and 28 represent the results of compound 102 at the concentrations of 0.002, 0.02 and 0.2 mM, respectively.

[2] = system: Macrosiphum euphorbiae larvae; test: Effects on larval survival (artificial medium feeding); settings: for aphicide activity on larvae compared with 0.2 mM solanidine: 0.002 mM; for Percentage of larval survival: after 16 days of treatment; for aphicide properties with respect to larvae compared with solanidine: 0.02 mM
Method: (§4) The Macrosiphum euphorbiae population was initiated from an apterous female provided by the Laboratory of Functional Biology, Insects and Interactions of the INRA/INSA of Villeurbanne in 2004. She was captured in 1995 on an eggplant in the Rhone-Alps region. The Macrosiphum euphorbiae aphids were raised on Desiree variety potato plants indoors at 20±1° C., 60±5% relative humidity and under a photoperiod of 16 hours of light and 8 hours of darkness.
For the tests on Macrosiphum euphorbiae larvae, adults were isolated and placed in PVC cages on artificial medium for one day in order to synchronize their lineage. Neonates (40 per experiment), less than 24 hours old, are placed in PVC cages containing artificial medium alone (control experiment) or artificial medium supplemented with 0.002, 0.02 or 0.2 mM active compound.
as §2
(§5) A standard diet was used as the basis for carrying out the physiological monitoring. Its composition was described by Febvay et al. (J. Zool. 1988, 66(11), 2449-2453) and then modified according to the conditions of Down et al. (J. Insect Physiol. 1996, 42(11-12), 1035-1045) as shown in Table 2. The medium is supplemented with active compound and placed between two layers of Parafilm® in sterile conditions.
as §3
The biological tests were carried out on Macrosiphum euphorbiae neonates less than 24 hours old. They are placed on artificial medium containing chaconine, solanine, solanidine, 100, 101 or 102.

[3] = system: Macrosiphum euphorbiae adults; test: Effects on adult survival (artificial medium feeding); settings: for Percentage of adult survival: after 16 days of treatment
Method: as §4, §1, §2, §5, §3
The biological tests of compounds 100, 101 and 102 on Macrosiphum euphorbiae adults are presented in FIG. 2, and are compared to a control experiment.

| SMILES | effect on reproduction in comparison with the control ([1]; 0.02 mM) | effect on reproduction in comparison with the control ([1]; 0.2 mM) | aphicide activity on larvae compared with 0.2 mM solanidine [2] | Percentage of larval survival ([2]; 0.002 mM in artificial medium) | aphicide properties with respect to larvae compared with solanidine [2] | Percentage of larval survival ([2]; 0.02 mM in artificial medium) | Percentage of larval survival ([2]; 0.2 mM in artificial medium) | activity on adult survival in comparison with the control ([3]; 0.002 mM) | Percentage of adult survival ([3]; 0.002 mM in artificial medium) | activity on adult survival in comparison with the control ([3]; 0.02 mM) | Percentage of adult survival ([3]; 0.02 mM in artificial medium) | activity on adult survival in comparison with the control ([3]; 0.2 mM) | Percentage of adult survival ([3]; 0.2 mM in artificial medium) | mortality at 200 µM ([3]; Macrosiphum euphorbiae, 0.2 mM, read-out: mortality rate of adults) |
| --- | --- | --- | --- | --- | --- | --- | --- | --- | --- | --- | --- | --- | --- | --- |
| C[C@H]1CCC2[C@@H](C)C3C(CC4C5CC=C6C[C@@H](OCCCn7cc(CO[C@@H]8OC(CO)[C@@H](O)C(O)C8O)nn7)CC[C@]6(C)C5CC[C@@]43C)N2C1 (stereo partly drawn) [Compound 100, 3-O-{3-[4-(β-D-glucopyranosyloxymethyl)-1,2,3-triazol-1-yl]propyl}solanidine] | significantly reduce reproduction | significantly reduce reproduction | lower activity than 0.2 mM solanidine | 76a % | stronger than with solanidine | 26% and 26b % | 22% and 22c % | no significant activity | 97a % | no significant activity | 81b % | notable effect | 46c % | 54% |
| C[C@H]1CC[C@@H]2[C@@H](C)[C@H]3[C@H](C[C@H]4[C@@H]5CC=C6C[C@@H](O[C@@H]7O[C@H](CO)[C@H](O)[C@H](O[C@@H]8O[C@H](CO)[C@@H](O)[C@H](O)[C@H]8O)[C@H]7O[C@H]7O[C@@H](C)[C@H](O)[C@@H](O)[C@H]7O)CC[C@]6(C)[C@H]5CC[C@]34C)N2C1 [Solanine, solanine, reference compound] |  |  |  | 82a % |  | 80a % | 64c % |  |  |  |  |  |  |  |
| C[C@H]1CC[C@@H]2[C@@H](C)[C@H]3[C@H](C[C@H]4[C@@H]5CC=C6C[C@@H](O[C@@H]7O[C@H](CO)[C@H](O[C@@H]8O[C@@H](C)[C@H](O)[C@@H](O)[C@H]8O)[C@H](O)[C@@H]7O[C@@H]7O[C@@H](C)[C@@H](O)[C@@H](O)[C@H]7O)CC[C@]6(C)[C@H]5CC[C@]34C)N2C1 [Chaconine, chaconine, reference compound] |  |  |  | 72a % |  | 70a % | 52b % |  |  |  |  |  |  |  |
| C[C@H]1CC[C@@H]2[C@@H](C)[C@H]3[C@H](C[C@H]4[C@@H]5CC=C6C[C@@H](O)CC[C@]6(C)[C@H]5CC[C@]34C)N2C1 [Solanidine, solanidine] |  |  |  | 74a % |  | 60d % | 52b % |  |  |  |  |  |  |  |
| CC1O[C@@H](OCc2cn(CCCO[C@H]3CC[C@@]4(C)C(=CCC5C6CC7C([C@H](C)C8CC[C@H](C)CN78)[C@@]6(C)CCC54)C3)nn2)C(O)C(O)[C@H]1O (stereo partly drawn) [Compound 102, 3-O-{3-[4-(α-L-rhamnopyranosyloxymethyl)-1,2,3-triazol-1-yl]propyl}solanidine] | significantly reduce reproduction | significantly reduce reproduction | lower activity than 0.2 mM solanidine | 84a % | stronger than with solanidine | 32% and 32b % | 6% and 6d % | no significant aphicide activity | 95a % | marked effect on the survival of adults | 67b % | marked effect on the survival of adults | 7d % |  |
| C[C@H]1CCC2[C@@H](C)C3C(CC4C5CC=C6C[C@@H](OCCCn7cc(CO[C@@H]8OC(CO)[C@H](O)C(O)C8O)nn7)CC[C@]6(C)C5CC[C@@]43C)N2C1 (stereo partly drawn) [Compound 101, 3-O-{3-[4-(β-D-galactopyranosyloxymethyl)-1,2,3-triazol-1-yl]propyl}solanidine] | significantly reduce reproduction | significantly reduce reproduction | lower activity than 0.2 mM solanidine | 62a % | stronger than with solanidine | 33% and 33b % | 24% and 24c % |  | 90a % | drop in the survival rate | 73b % | drop in the survival rate | 54c % |  |
